Experiment [1] relates to mouse model for hair growth. In words: Mouse model for hair growth, Study 10-04 (Test One). Type of experiment: in vivo. The conditions noted are these: compared with vehicle or single agents. An excerpt:
A comparison of topical compositions comprising bimatoprost or minoxidil, alone, and the combination of bimatoprost and minoxidil, in a single composition, with the vehicle, for onset of hair growth and full hair growth, in a mouse model for hair growth, gave the results summarized in Table 1, below, and FIG. 5.

The subject of experiment [2] is mouse model of hair growth. The experiment in a line: Mouse model of hair growth, Study 10-06 (Test Two). Type of experiment: in vivo. An excerpt:
FIGS. 6 through 8 show the results of a separate testing (Test Two) of synergistic composition of the invention in the same mouse model of hair growth, with FIG. 6 being the Vehicle, FIG. 7 being 0.03% Bimatoprost, alone, and FIG. 8 being the synergistic composition, i.e. 0.03% Bimatoprost and 5% Rogaine (minoxidil).

The values below come from patent publication US20180110711A1, “METHOD OF ENHANCING HAIR GROWTH” (Allergan, Inc., priority 2011, published 2018).

Take `CCNC(=O)CCC/C=C\C[C@@H]1[C@@H](/C=C/[C@@H](O)CCc2ccccc2)[C@H](O)C[C@@H]1O` [BIMATOPROST 0.03%, cyclopentane N-ethyl heptanamide-5-cis-2-(3α-hydroxy-5-phenyl-1-trans-pentenyl)-3,5-dihydroxy, [1α,2α,3α,5α]]: the “full hair growth (in words, comparison)” value in experiment [1] and in experiment [2] (compared with vehicle) was “did not obtain the result of full hair growth faster then the vehicle” each time. In addition, the “onset of hair growth (in words, comparison)” value in experiment [1] and in experiment [2] (compared with vehicle or bimatoprost alone) was “faster onset of hair growth” throughout.
Regarding `Nc1cc(N2CCCCC2)nc(N)[n+]1[O-]` [MINOXIDIL 5%, minoxidil], in experiment [1], the “full hair growth (in words, comparison)” value is recorded as “did not obtain the result of full hair growth faster then the vehicle” and the “onset of hair growth (in words, comparison)” value is on record as “faster onset of hair growth”.
